Residue numbers refer to the chain shown, from its start. Activity calls are given as the source filed them. No cut-off for these calls is given here.

The term IC50 denotes the concentration that gives 50% inhibition.

For assay [1], the species on record is Homo sapiens. Briefly: Ratio of IC50 for inhibition of recombinant AKR1C4 (unknown origin) inhibition of recombinant AKR1C3 (unknown origin).
Assay [2] addresses T1, Aldo-keto reductase family 1 member C2 (Homo sapiens, UniProt P52895).
T1 sequence (P52895 whole entry): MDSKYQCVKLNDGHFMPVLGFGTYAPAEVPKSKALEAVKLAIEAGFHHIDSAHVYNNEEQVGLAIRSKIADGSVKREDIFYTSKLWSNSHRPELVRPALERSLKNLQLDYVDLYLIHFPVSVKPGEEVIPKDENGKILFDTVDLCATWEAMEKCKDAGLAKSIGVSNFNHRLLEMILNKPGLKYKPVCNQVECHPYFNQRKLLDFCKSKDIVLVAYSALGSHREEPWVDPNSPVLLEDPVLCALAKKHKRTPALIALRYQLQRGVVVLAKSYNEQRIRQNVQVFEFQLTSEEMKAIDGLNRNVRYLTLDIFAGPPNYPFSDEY
The assay can be described thus: Inhibition of recombinant AKR1C2 (unknown origin) assessed as reduction in S-tetralol-induced dehydrogenase activity by measuring NADPH level.

Assay [3] concerns the target T2, Carbonyl reductase [NADPH] 1 (Homo sapiens, UniProt P16152).
T2 sequence (P16152 whole entry): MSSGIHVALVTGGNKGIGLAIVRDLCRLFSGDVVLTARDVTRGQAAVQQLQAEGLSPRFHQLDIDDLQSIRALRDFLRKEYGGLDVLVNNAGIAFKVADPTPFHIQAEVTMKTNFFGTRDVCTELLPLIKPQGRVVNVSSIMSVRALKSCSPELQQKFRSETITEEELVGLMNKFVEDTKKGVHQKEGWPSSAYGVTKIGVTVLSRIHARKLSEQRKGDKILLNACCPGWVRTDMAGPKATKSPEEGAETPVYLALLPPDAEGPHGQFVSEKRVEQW
Briefly: Inhibition of CBR1 (unknown origin).

The target of assay [4] is T3, Aldo-keto reductase family 1 member C1 (Homo sapiens, UniProt Q04828).
T3 sequence (Q04828 whole entry): T1 sequence (P52895 whole entry) with V38T, H47R, V54L, S87C, M151V, H170R, L172Q
Briefly: Inhibition of recombinant AKR1C1 (unknown origin) assessed as reduction in S-tetralol-induced dehydrogenase activity by measuring NADPH level.

For assay [5], the species on record is Homo sapiens. Briefly: Ratio of IC50 for inhibition of recombinant AKR1C1 (unknown origin) inhibition of recombinant AKR1C3 (unknown origin).
Assay [6] has as its target T4, Aldo-keto reductase family 1 member C3 (Homo sapiens, UniProt P42330).
T4 sequence (P42330 whole entry): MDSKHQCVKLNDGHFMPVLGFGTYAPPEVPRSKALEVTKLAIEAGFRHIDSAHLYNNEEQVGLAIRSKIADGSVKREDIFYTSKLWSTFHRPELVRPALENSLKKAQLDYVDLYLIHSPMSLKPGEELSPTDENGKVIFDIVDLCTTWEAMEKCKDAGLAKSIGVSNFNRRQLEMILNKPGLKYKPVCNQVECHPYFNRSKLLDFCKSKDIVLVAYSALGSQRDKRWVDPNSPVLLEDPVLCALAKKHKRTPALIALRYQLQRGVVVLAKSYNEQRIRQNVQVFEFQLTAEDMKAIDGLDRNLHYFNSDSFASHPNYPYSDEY
The assay can be described thus: Inhibition of recombinant AKR1C3 (unknown origin) assessed as reduction in S-tetralol-induced dehydrogenase activity by measuring NADPH level.

The species named for assay [7] is Homo sapiens. The assay can be described thus: Ratio of IC50 for inhibition of CBR1 (unknown origin) inhibition of recombinant AKR1C3 (unknown origin).
For assay [8], the target named is T5, Aldo-keto reductase family 1 member C4 (Homo sapiens, UniProt P17516).
T5 sequence (P17516 whole entry): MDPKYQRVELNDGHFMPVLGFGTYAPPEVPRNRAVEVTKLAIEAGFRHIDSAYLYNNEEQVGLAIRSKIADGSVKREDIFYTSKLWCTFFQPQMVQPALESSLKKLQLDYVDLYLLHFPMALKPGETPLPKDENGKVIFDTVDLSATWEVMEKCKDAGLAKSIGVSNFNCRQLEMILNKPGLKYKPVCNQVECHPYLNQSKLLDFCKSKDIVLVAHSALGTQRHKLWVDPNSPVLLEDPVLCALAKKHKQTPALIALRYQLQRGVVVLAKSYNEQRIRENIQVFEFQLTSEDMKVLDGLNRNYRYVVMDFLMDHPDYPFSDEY
Briefly: Inhibition of recombinant AKR1C4 (unknown origin) assessed as reduction in S-tetralol-induced dehydrogenase activity by measuring NADPH level.

In assay [9] the target is T6, Androgen receptor (Homo sapiens) (UniProt P10275).
T6 sequence (whole entry): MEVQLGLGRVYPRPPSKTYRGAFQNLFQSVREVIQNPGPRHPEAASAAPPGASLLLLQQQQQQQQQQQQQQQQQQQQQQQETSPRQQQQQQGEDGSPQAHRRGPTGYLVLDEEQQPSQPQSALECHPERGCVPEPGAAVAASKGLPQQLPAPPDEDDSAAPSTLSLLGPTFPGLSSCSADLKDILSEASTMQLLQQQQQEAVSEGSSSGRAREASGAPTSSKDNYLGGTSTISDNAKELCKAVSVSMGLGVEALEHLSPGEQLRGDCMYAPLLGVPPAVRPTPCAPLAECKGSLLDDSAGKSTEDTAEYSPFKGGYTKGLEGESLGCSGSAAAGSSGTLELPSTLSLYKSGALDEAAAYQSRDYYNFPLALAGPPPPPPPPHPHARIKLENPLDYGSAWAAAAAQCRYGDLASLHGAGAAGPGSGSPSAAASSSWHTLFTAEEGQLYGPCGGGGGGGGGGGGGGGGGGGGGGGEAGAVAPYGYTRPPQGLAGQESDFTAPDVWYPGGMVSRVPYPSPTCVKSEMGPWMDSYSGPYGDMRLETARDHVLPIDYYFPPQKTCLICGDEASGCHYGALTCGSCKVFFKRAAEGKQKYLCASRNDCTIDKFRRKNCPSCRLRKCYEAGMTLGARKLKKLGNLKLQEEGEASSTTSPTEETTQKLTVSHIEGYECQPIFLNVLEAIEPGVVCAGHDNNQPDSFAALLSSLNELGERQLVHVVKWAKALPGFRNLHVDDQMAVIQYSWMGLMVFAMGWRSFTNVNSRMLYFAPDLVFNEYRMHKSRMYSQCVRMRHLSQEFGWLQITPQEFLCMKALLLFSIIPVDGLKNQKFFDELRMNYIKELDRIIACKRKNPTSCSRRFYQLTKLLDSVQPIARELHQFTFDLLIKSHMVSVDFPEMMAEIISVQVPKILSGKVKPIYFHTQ
Briefly: Agonistic activity at AR in human 22Rv1 cells assessed as effect on cell number at 1 nM by CCK8 assay. The assay is classed as cell-based. To be noted: CWR22R. (In general: Tetrazolium assays rely on reduction of a dye to a coloured formazan, in cell work by metabolically active cells.)

Assay [10] is filed under the species Homo sapiens. Briefly: Ratio of IC50 for inhibition of recombinant AKR1C2 (unknown origin) inhibition of recombinant AKR1C3 (unknown origin).

Regarding `CCc1cccc(NC(=O)c2cc3cccc(O)c3oc2=N)c1`, the Ratio IC50 was more than 300 in the assay filed under Homo sapiens [1], more than 300 in the assay filed under Homo sapiens [5], 7 in the assay filed under Homo sapiens [7] and more than 300 in the assay listed under Homo sapiens [10]. Moreover, the half-inhibitory concentration (IC50) was more than 10 µM in [2]; 0.25 µM in [3]; more than 10 µM in assay [4]; 0.034 µM in assay [6]; more than 10 µM in assay [8]. In assay [9], the result was inactive.
As for `Cc1ccc(NC(=O)c2cc3cccc(O)c3oc2=N)cc1`, the Ratio IC50 in the assay listed under Homo sapiens [1] was more than 370; in the assay filed under Homo sapiens [5] it was more than 370; in the assay filed under Homo sapiens [7], 10; in the assay filed under Homo sapiens [10] it was more than 370. Further, the IC50 in assay [2] was more than 10 µM; in assay [3], 0.27 µM; in assay [4] it was more than 10 µM; in assay [6], 0.027 µM; in assay [8], more than 10 µM. For the same compound, in [9], the outcome was inactive.
For `N=c1oc2c(O)cccc2cc1C(=O)Nc1ccc(F)cc1`, the Ratio IC50 in the assay listed under Homo sapiens [1] was more than 400; in the assay listed under Homo sapiens [5], 240; in the assay filed under Homo sapiens [7] it was 18; in the assay filed under Homo sapiens [10] it was more than 400. The IC50 in [2] is more than 10 µM; in [3], 0.44 µM; in assay [4] it was 6 µM; in [6], 0.025 µM; in assay [8], more than 10 µM. The outcome in assay [9] was inactive.
